Assays:
[1] = target: T1, human recombinant 15-PGDH (Homo sapiens, UniProt P15428); experiment: Recombinant 15-PGDH enzymatic inhibition assay (PGDH-Lumi, NADH signal); type: biochemical; conditions: recombinant 15-PGDH; 15 min pre-incubation, 60 min reaction with PGE2 and NAD+, NADH signal
T1 sequence (P15428 1-266): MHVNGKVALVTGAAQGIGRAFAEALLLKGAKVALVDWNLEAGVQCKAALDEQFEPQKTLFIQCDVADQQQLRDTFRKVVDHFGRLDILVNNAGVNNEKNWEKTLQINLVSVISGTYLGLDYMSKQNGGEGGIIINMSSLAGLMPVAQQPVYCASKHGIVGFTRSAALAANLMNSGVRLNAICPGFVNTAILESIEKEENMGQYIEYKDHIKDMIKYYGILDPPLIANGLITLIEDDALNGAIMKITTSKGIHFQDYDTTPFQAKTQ
Procedure, shortened: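 Buffer 50 mM Tris pH 7.5 with 0.01% Tween-20 and […]; compound, 22 two-fold dilutions, pre-incubated with enzyme 15 min before substrate.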

15-PGDH in A549 cells = target: T2, 15-PGDH in A549 cells (Homo sapiens, UniProt P15428); experiment: A549 cellular 15-PGDH assay (PGE2 accumulation, HTRF); type: cell-based; conditions: interleukin-stimulated, inhibitor 24 hrs, PGE2 by competitive HTRF, read-out: A549 Cell Assay IC50
T2 construct: endogenous in cells; host or cells: A549
T2 sequence (P15428 1-266): T1 sequence (P15428 1-266)
Procedure, shortened: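 Supernatant PGE2 was quantified by competitive HTRF, in which sample PGE2 blocks FRET between a europium cryptate-labelled antibody and labelled PGE2. It came from A549 epithelial cells induced with IL-13. IC50s were calculated from the inversely proportional signal.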

Structure (SMILES)	IC50 [1]	IC50 (15-PGDH in A549 cells)
OC1(c2cc3ccc(-c4cnc5[nH]cnc5c4)nc3s2)CC(F)(F)C1 [Compound C41, 3,3-difluoro-1-(6-(3H-imidazo[4,5-b]pyridin-6-yl)thieno[2,3-b]pyridin-2-yl)cyclobutanol]	1.24 nM	2.15 nM
OC1(c2cc3ccc(-c4ccc5[nH]ncc5c4)nc3s2)CC(F)(F)C1 [Compound C42, 3,3-difluoro-1-(6-(1H-indazol-5-yl)thieno[2,3-b]pyridin-2-yl)cyclobutanol]	23.8 nM	6.81 nM
CNc1ncc(-c2ccc3cc(C4(O)CC(F)(F)C4)sc3n2)cn1 [Compound C43, 3,3-difluoro-1-(6-(2-(methylamino)-5-pyrimidinyl)thieno[2,3-b]pyridin-2-yl)cyclobutanol]	5.3 nM	6.34 nM
Cc1cn2ccc(-c3ccc4cc(C5(O)CC(F)(F)C5)sc4n3)cc2n1 [Compound C44, 3,3-difluoro-1-(6-(2-methylimidazo[1,2-a]pyridin-7-yl)thieno[2,3-b]pyridin-2-yl)cyclobutanol]	7.56 nM	6.17 nM
Cc1cn2cc(-c3ccc4cc(C5(O)CC(F)(F)C5)sc4n3)cnc2n1 [Compound C45, 3,3-difluoro-1-(6-(2-methylimidazo[1,2-a]pyrimidin-6-yl)thieno[2,3-b]pyridin-2-yl)cyclobutanol]	1.68 nM	1.35 nM
OC1(c2cc3ccc(-c4cncnc4)nc3s2)CC(F)(F)C1 [Compound C46, 3,3-difluoro-1-(6-(5-pyrimidinyl)thieno[2,3-b]pyridin-2-yl)cyclobutanol]	26.1 nM	12.3 nM
OC1(c2cc3ccc(-c4cnc5nccnc5c4)nc3s2)CC(F)(F)C1 [Compound C47, 3,3-difluoro-1-(6-(pyrido[2,3-b]pyrazin-7-yl)thieno[2,3-b]pyridin-2-yl)cyclobutanol]	0.996 nM	0.373 nM
Cn1cc2cc(-c3ccc4cc(C5(O)CC(F)(F)C5)sc4c3)cnc2n1 [Compound C48, 3,3-difluoro-1-(6-(2-methyl-2H-pyrazolo[3,4-b]pyridin-5-yl)-1-benzothiophen-2-yl)cyclobutanol]	27.7 nM	7.36 nM
Cn1cc2cc(-c3ccc4cc(C5(O)CC(F)(F)C5)sc4n3)ccc2n1 [Compound C49, 3,3-difluoro-1-(6-(2-methyl-2H-indazol-5-yl)thieno[2,3-b]pyridin-2-yl)cyclobutanol]	13.2 nM	1.82 nM
OC1(c2cc3ccc(-c4ccc5oncc5c4)nc3s2)CC(F)(F)C1 [Compound C50, 1-(6-(1,2-benzoxazol-5-yl)thieno[2,3-b]pyridin-2-yl)-3,3-difluorocyclobutanol]	34.7 nM	11.1 nM
Cn1nnc2cc(-c3ccc4cc(C5(O)CC(F)(F)C5)sc4n3)cnc21 [Compound C51, 3,3-difluoro-1-(6-(3-methyl-3H-[1,2,3]triazolo[4,5-b]pyridin-6-yl)thieno[2,3-b]pyridin-2-yl)cyclobutanol]	2.19 nM	1.1 nM
Cn1cc2cc(-c3ccc4cc(C5(O)CC6(CCCCC6)C5)sc4n3)cnc2n1 [Compound C52, 2-(6-(2-methyl-2H-pyrazolo[3,4-b]pyridin-5-yl)thieno[2,3-b]pyridin-2-yl)spiro[3.5]nonan-2-ol]	0.361 nM	0.0938 nM
Cn1cc2cc(-c3ccc4cc(C5(O)CC6(CCCC6)C5)sc4n3)cnc2n1 [Compound C53, 2-(6-(2-methyl-2H-pyrazolo[3,4-b]pyridin-5-yl)thieno[2,3-b]pyridin-2-yl)spiro[3.4]octan-2-ol]	0.363 nM	0.0361 nM
Cc1cn2ncc(-c3ccc4cc(C5(O)CC(F)(F)C5)sc4n3)cc2n1 [Compound C54, 3,3-difluoro-1-(6-(2-methylimidazo[1,2-b]pyridazin-7-yl)thieno[2,3-b]pyridin-2-yl)cyclobutanol]	3.51 nM	3.06 nM
OC1(c2cc3ccc(-c4cnc5[nH]nnc5c4)nc3s2)CC(F)(F)C1 [Compound C55]	0.821 nM	1.59 nM
Cn1cc2cc(-c3ncc4cc(C5(O)CC(C)(C)C5)sc4n3)cnc2n1 [Compound C57, 3,3-dimethyl-1-(2-(2-methyl-2H-pyrazolo[3,4-b]pyridin-5-yl)thieno[2,3-d]pyrimidin-6-yl)cyclobutanol]	0.62 nM	0.143 nM

Structure (SMILES)	IC50 [1]	IC50 (15-PGDH in A549 cells)
CO[C@]1(C)C[C@@](O)(c2cc3ccc(-c4cnc5nn(C)cc5c4)nc3s2)C1 [Compound C59C, cis-3-methoxy-3-methyl-1-(6-(2-methyl-2H-pyrazolo[3,4-b]pyridin-5-yl)thieno[2,3-b]pyridin-2-yl)cyclobutanol]	0.584 nM	0.113 nM
Cn1cc2cc(-c3ccc4cc(C5(O)CC5)sc4n3)cnc2n1 [Compound C60, 1-(6-(2-methyl-2H-pyrazolo[3,4-b]pyridin-5-yl)thieno[2,3-b]pyridin-2-yl)cyclopropanol]	52.1 nM	26.7 nM
Cn1cc2cc(-c3ccc4cc(C5(O)CC6(CC6)C5)sc4n3)cnc2n1 [Compound C61, 5-(6-(2-methyl-2H-pyrazolo[3,4-b]pyridin-5-yl)thieno[2,3-b]pyridin-2-yl)spiro[2.3]hexan-5-o1]	0.28 nM	0.0594 nM
Cn1cc2cc(-c3ccc4cc([C@]5(O)C[C@@](C)(C#N)C5)sc4n3)cnc2n1 [Compound C63C, cis-3-hydroxy-1-methyl-3-(6-(2-methyl-2H-pyrazolo[3,4-b]pyridin-5-yl)thieno[2,3-b]pyridin-2-yl)cyclobutanecarbonitrile]	0.429 nM	0.115 nM
Cn1cc2cc(-c3ccc4cc([C@]5(O)C[C@](C)(C#N)C5)sc4n3)cnc2n1 [Compound C63T, trans-3-hydroxy-1-methyl-3-(6-(2-methyl-2H-pyrazolo[3,4-b]pyridin-5-yl)thieno[2,3-b]pyridin-2-yl)cyclobutanecarbonitrile]	0.376 nM	0.0863 nM
Cn1cc2cc(-c3ccc4cc([C@]5(O)C[C@@H](OC(F)(F)F)C5)sc4n3)cnc2n1 [Compound C67C, cis-1-(6-(2-methyl-2H-pyrazolo[3,4-b]pyridin-5-yl)thieno[2,3-b]pyridin-2-yl)-3-(trifluoromethoxy)cyclobutanol]	0.534 nM	0.0187 nM
Cn1cc2cc(-c3ccc4nc(C5(O)CC(C)(C)C5)sc4n3)cnc2n1 [Compound C68, 3,3-dimethyl-1-(5-(2-methyl-2H-pyrazolo[3,4-b]pyridin-5-yl)[1,3]thiazolo[5,4-b]pyridin-2-yl)cyclobutanol]	0.58 nM	0.361 nM
CO[C@H]1C[C@](O)(c2sc3nc(-c4cnc5nn(C)cc5c4)ccc3c2Cl)C1 [Compound C69C, cis-1-(3-chloro-6-(2-methyl-2H-pyrazolo[3,4-b]pyridin-5-yl)thieno[2,3-b]pyridin-2-yl)-3-methoxycyclobutanol]	1.16 nM	0.722 nM
Cn1cc2cc(-c3ncc4cc([C@]5(O)C[C@@H](C(F)(F)F)C5)sc4n3)cnc2n1 [Compound C71C, cis-1-(2-(2-methyl-2H-pyrazolo[3,4-b]pyridin-5-yl)thieno[2,3-d]pyrimidin-6-yl)-3-(trifluoromethyl)cyclobutanol]	0.54 nM	0.142 nM
Cn1cc2cc(-c3ccc4c(Cl)c(C5(O)CC(C)(C)C5)sc4n3)cnc2n1 [Compound C73, 1-(3-chloro-6-(2-methyl-2H-pyrazolo[3,4-b]pyridin-5-yl)thieno[2,3-b]pyridin-2-yl)-3,3-dimethylcyclobutanol]	2.44 nM	1.26 nM
Cn1cc2cc(-c3ccc4nc([C@]5(O)C[C@@H](C(F)(F)F)C5)sc4n3)cnc2n1 [Compound C74C, cis-1-(5-(2-methyl-2H-pyrazolo[3,4-b]pyridin-5-yl)[1,3]thiazolo[5,4-b]pyridin-2-yl)-3-(trifluoromethyl)cyclobutanol]	0.458 nM	0.192 nM
Cn1cc2cc(-c3ccc4c(Cl)c([C@]5(O)C[C@@H](C(F)(F)F)C5)sc4n3)cnc2n1 [Compound C75C, cis-1-(3-chloro-6-(2-methyl-2H-pyrazolo[3,4-b]pyridin-5-yl)thieno[2,3-b]pyridin-2-yl)-3-(trifluoromethyl)cyclobutanol]	0.707 nM	1.07 nM
Cn1nnc2cc(-c3ccc4cc([C@]5(O)C[C@@H](C(F)F)C5)sc4n3)cnc21 [Compound C76C, cis-3-(difluoromethyl)-1-(6-(3-methyl-3H-[1,2,3]triazolo[4,5-b]pyridin-6-yl)thieno[2,3-b]pyridin-2-yl)cyclobutanol]	0.832 nM	1.03 nM
Cc1c(C2(O)CC(F)(F)C2)sc2nc(-c3cnc4nn(C)cc4c3)ccc12 [Compound C77, 3,3-difluoro-1-(3-methyl-6-(2-methyl-2H-pyrazolo[3,4-b]pyridin-5-yl)thieno[2,3-b]pyridin-2-yl)cyclobutanol]	7.69 nM	9.15 nM
Cc1c2ccc(-c3cnc4nn(C)cc4c3)nc2sc1[C@]1(O)C[C@@H](C(F)(F)F)C1 [Compound C78C, cis-1-(3-methyl-6-(2-methyl-2H-pyrazolo[3,4-b]pyridin-5-yl)thieno[2,3-b]pyridin-2-yl)-3-(trifluoromethyl)cyclobutanol]	1.03 nM	2.42 nM

— US20240409557A1, “5,6-FUSED AND 6,6-FUSED BICYCLIC ALCOHOLS AND ETHERS AND COMPOSITIONS FOR USE AS 15-PROSTAGLANDIN DEHYDROGENASE MODULATORS” (AMGEN INC., priority 2023, published 2024)
